Data published in the supplement of paper PMC10307832.

What was measured:
Assay in all cases: relative viability (nuclei count vs DMSO), 5 days (fraction); higher = more cells survive
[1] = compound: CC1=C(C(=NN1)C)CC2=C(C3=C(S2)N(C(=O)N(C3=O)C)CC(C)C)C(=O)N4C[C@@H](CO4)O + COc1cccc2cc(-c3nc([C@H]4CC[C@H](C(=O)O)CC4)n4ncnc(N)c34)[nH]c12 [OSI-027] (partner 0.5 µM)
In short: (§1)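 Lung cancer cell lines were seeded in 1536-well plates and dosed by pin tool the next day, with either a single drug or a fixed anchor-drug dose combined with five library-drug doses (not always all listed) spaced in √10 steps. Five days later, one step fixed the cells and stained their nuclei (final 0.05% Triton X-100, 1% formaldehyde, 1 ug/ml Hoechst), and nuclei were counted on 4× images. Relative viability is the nuclei count in treated wells divided by the count in vehicle wells, and each value is the median of duplicate plates.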

[2] = compound: CC1=C(C(=NN1)C)CC2=C(C3=C(S2)N(C(=O)N(C3=O)C)CC(C)C)C(=O)N4C[C@@H](CO4)O + CS(=O)(=O)N1CCN(Cc2cc3nc(-c4cccc5[nH]ncc45)nc(N4CCOCC4)c3s2)CC1 [Pictilisib] (partner 1 µM)
In short: as §1

[3] = compound: Cc1ccccc1C(C(=O)NC1CCCCC1)N(C(=O)Cn1ccnc1C)c1cccc(F)c1 [IDH-C35] + CS(=O)(=O)CCNCc1ccc(-c2ccc3ncnc(Nc4ccc(OCc5cccc(F)c5)c(Cl)c4)c3c2)o1 [Lapatinib] (partner 2 µM)
In short: as §1

[4] = compound: Cc1ccccc1C(C(=O)NC1CCCCC1)N(C(=O)Cn1ccnc1C)c1cccc(F)c1 [IDH-C35] + Cc1nc(Nc2ncc(C(=O)Nc3c(C)cccc3Cl)s2)cc(N2CCN(CCO)CC2)n1 [Dasatinib] (partner 0.075 µM)
In short: as §1

Row | Cell Line | relative viability ([1]; first compound 0.0025 µM) | relative viability ([1]; first compound 0.007906 µM) | relative viability ([1]; first compound 0.025 µM) | relative viability ([1]; first compound 0.07906 µM) | relative viability ([1]; first compound 0.25 µM) | relative viability ([2]; first compound 0.0025 µM) | relative viability ([2]; first compound 0.007906 µM) | relative viability ([2]; first compound 0.025 µM) | relative viability ([2]; first compound 0.07906 µM) | relative viability ([2]; first compound 0.25 µM) | relative viability ([3]; first compound 0.08 µM) | relative viability ([3]; first compound 0.253 µM) | relative viability ([3]; first compound 0.8 µM) | relative viability ([3]; first compound 2.53 µM) | relative viability ([3]; first compound 8 µM) | relative viability ([4]; first compound 0.08 µM) | relative viability ([4]; first compound 0.253 µM) | relative viability ([4]; first compound 0.8 µM) | relative viability ([4]; first compound 2.53 µM) | relative viability ([4]; first compound 8 µM)
1 | NCI-H2009 | 0.742 | 0.701 | 0.616 | 0.706 | 0.695 | 0.875 | 0.884 | 0.842 | 0.998 | 0.909 | 1 | 0.928 | 0.908 | 0.639 | 0.729 | 0.309 | 0.33 | 0.341 | 0.311 | 0.303
2 | NCI-H2405 | 0.703 | 0.645 | – | 0.62 | 0.661 | 0.459 | 0.422 | – | 0.432 | 0.476 | 1.1 | 1.2 | 1.09 | – | 0.957 | 0.209 | 0.212 | 0.213 | 0.206 | 0.184
3 | NCI-H1755 | 0.767 | 0.743 | 0.684 | 0.702 | 0.704 | 0.445 | 0.42 | 0.44 | 0.479 | 0.497 | 1.08 | 1.03 | 0.992 | 1.03 | 1.02 | 0.374 | 0.409 | 0.433 | 0.409 | 0.465
4 | HCC-78 | 0.388 | 0.38 | 0.343 | 0.357 | 0.374 | 0.217 | 0.218 | 0.172 | 0.169 | 0.194 | 1.02 | 0.732 | 0.841 | 0.606 | 0.355 | 0.361 | 0.315 | 0.496 | 0.325 | 0.435
5 | LOU-NH91 | 0.719 | 0.714 | 0.715 | 0.84 | 0.727 | 0.503 | 0.494 | 0.495 | 0.571 | 0.529 | 0.798 | 0.813 | 0.776 | 0.749 | 0.767 | 0.554 | 0.538 | 0.558 | 0.531 | 0.557
6 | NCI-H3122 | 0.912 | 0.765 | 0.927 | 1.04 | 0.989 | 0.644 | 0.618 | 0.642 | 0.606 | 0.587 | 1.06 | 0.951 | 1.04 | 1 | 1.03 | 0.725 | 0.487 | 0.56 | 0.865 | 0.777
7 | HCC-827 | 0.812 | 0.793 | 0.756 | 0.759 | 0.952 | 1.24 | 1.04 | 0.896 | 0.863 | 1.06 | 0.183 | 0.211 | 0.173 | 0.218 | 0.228 | 0.328 | 0.263 | 0.29 | 0.32 | 0.382
8 | SK-LU-1 | 0.311 | 0.227 | 0.217 | 0.246 | 0.229 | 0.544 | 0.354 | 0.336 | 0.327 | 0.343 | 0.918 | 0.856 | 0.871 | 0.976 | 0.82 | 0.188 | 0.181 | 0.172 | 0.177 | 0.191
9 | NCI-H1975 | 0.751 | 0.648 | 0.802 | 0.804 | 0.879 | 0.324 | 0.298 | 0.293 | 0.301 | 0.315 | 0.833 | 0.86 | 0.85 | 0.974 | 0.928 | 0.35 | 0.42 | 0.366 | 0.483 | 0.346
10 | NCI-H1651 | 0.726 | 0.734 | 0.846 | 0.659 | 0.662 | 0.579 | 0.634 | 0.651 | 0.558 | 0.52 | 0.849 | 0.828 | 0.954 | 1 | 0.76 | 0.416 | 0.398 | 0.426 | 0.404 | 0.382
11 | LCLC-97TM1 | 0.665 | 0.515 | 0.513 | 0.548 | 0.564 | 0.188 | 0.268 | 0.22 | 0.182 | 0.199 | 0.672 | 0.825 | 1.1 | – | 0.869 | 0.87 | 0.796 | 0.822 | 0.818 | 0.809
12 | NCI-H727 | 0.731 | 0.504 | 0.505 | 0.586 | 0.708 | 0.403 | 0.483 | 0.336 | 0.385 | 0.517 | 0.874 | 0.779 | 0.801 | 0.728 | 0.947 | 0.514 | 0.315 | 0.366 | 0.388 | 0.446
13 | NCI-H1355 | 0.458 | 0.441 | 0.425 | 0.464 | 0.39 | 0.45 | 0.562 | 0.528 | 0.405 | 0.5 | 1.03 | 0.976 | 0.945 | 0.97 | 0.934 | 0.76 | 0.727 | 0.667 | 0.651 | 0.742
14 | HOP-62 | 0.896 | 0.849 | 0.756 | 0.763 | 0.909 | 0.719 | 0.876 | 0.903 | 0.787 | 0.825 | 0.945 | 1.06 | 1.01 | – | 0.948 | 0.712 | 0.624 | 0.6 | 0.638 | 0.622
15 | NCI-H2085 | 0.722 | 0.685 | 0.759 | 0.736 | 0.447 | 0.527 | 0.455 | 0.449 | 0.468 | 0.399 | 0.834 | 0.741 | 0.764 | 0.848 | 0.728 | 0.275 | 0.261 | 0.223 | 0.277 | 0.266
